{"source": "ChEMBL document CHEMBL5532700", "about": "“Inhibition of bacterial RNA polymerase function and protein-protein interactions: a promising approach for next-generation antibacterial therapeutics” (RSC Med Chem, 2024)", "key": {"Staphylococcus aureus [1]": {"test_system": "Staphylococcus aureus", "assay": "Antibacterial activity against Staphylococcus aureus", "assay_type": "functional"}, "Staphylococcus aureus [2]": {"test_system": "Staphylococcus aureus", "assay": "Antibacterial activity against methicillin-resistant Staphylococcus aureus", "assay_type": "functional"}, "Staphylococcus aureus [3]": {"test_system": "Staphylococcus aureus", "assay": "Antibacterial activity against vancomycin-resistant Staphylococcus aureus", "assay_type": "functional"}, "[4]": {"assay": "Inhibition of NusB-NusE (unknown origin) protein protein interaction", "set-up": "species or system Bacteria"}, "[5]": {"assay": "Inhibition of Escherichia coli RNA polymerase/sigma factor 70 (unknown origin) protein-protein interaction incubated for 30 mins by ELISA"}, "[6]": {"assay": "Inhibition of ribo(C)10 stimulated Escherichia coli AR120 Rho ATPase activity preincubated for 2 mins in presence of ribo(C)10 followed by ATP addition and measured for 90 sec by [gamma-32P]ATP based liquid scintillation counting method"}, "[7]": {"assay": "Inhibition of ribo(C)10 stimulated Escherichia coli AR120 Rho ATPase activity preincubated for 2 mins in absence of ribo(C)10 followed by ATP addition and measured for 90 sec by [gamma-32P]ATP based liquid scintillation counting method"}, "Bacillus subtilis [8]": {"test_system": "Bacillus subtilis", "assay": "Antibacterial activity against Bacillus subtilis assessed as inhibition of bacterial growth at 200 uM incubated for 10 sec under shaking condition relative to control", "assay_type": "functional", "conditions": "10 s"}, "Escherichia coli": {"test_system": "Escherichia coli", "assay": "Antibacterial activity against Escherichia coli assessed as inhibition of bacterial growth at 200 uM incubated for 10 sec under shaking condition relative to control", "assay_type": "functional", "conditions": "10 s"}, "Bacteroides sp.": {"test_system": "Bacteroides sp.", "assay": "Antibacterial activity against Bacteroides sp. measured after 24 hrs by broth microdilution method", "assay_type": "functional"}, "Bacillus anthracis": {"test_system": "Bacillus anthracis", "assay": "Antibacterial activity against Bacillus anthracis 9131 measured after 24 hrs by broth microdilution method", "assay_type": "functional"}, "Streptococcus pneumoniae [9]": {"test_system": "Streptococcus pneumoniae", "assay": "Antibacterial activity against Streptococcus pneumoniae CIP103566 measured after 24 hrs by broth microdilution method", "assay_type": "functional"}, "[10]": {"assay": "Binding affinity to NusB (unknown origin) assessed as dissociation constant", "set-up": "species or system Bacteria"}, "Bacteria": {"test_system": "Bacteria", "assay": "Inhibition of bacterial RNA polymerase holoenzyme formation assessed as inhibition of interaction between beta subunit CH domain and sigma factor at 500 uM relative to control"}, "Streptococcus pneumoniae [11]": {"test_system": "Streptococcus pneumoniae", "assay": "Antibacterial activity against Streptococcus pneumoniae assessed as reduction in bacterial growth incubated for 16 to 20 hrs by broth microdilution method", "assay_type": "functional", "conditions": "time 16-20 hrs"}, "[12]": {"assay": "Inhibition of Bacillus subtilis N-terminal SmBiT NanoLuc/C-terminal LgBiT NanoLuc fused full-length SigA tagged RNA polymerase beta subunit CH-domain (220 to 315 residues)/sigma factor (unknown origin) protein-protein interaction by split luciferase assay"}, "[13]": {"assay": "Inhibition of poly(C) dependent Escherichia coli DW319 Rho ATPase activity"}, "Neisseria gonorrhoeae": {"test_system": "Neisseria gonorrhoeae", "assay": "Antibacterial activity against Neisseria gonorrhoeae", "assay_type": "functional"}, "Moraxella catarrhalis": {"test_system": "Moraxella catarrhalis", "assay": "Antibacterial activity against Moraxella catarrhalis", "assay_type": "functional"}, "Bacillus subtilis [14]": {"test_system": "Bacillus subtilis", "assay": "Antibacterial activity against Bacillus subtilis EU168 measured after 18 hrs", "assay_type": "functional"}, "Staphylococcus aureus [15]": {"test_system": "Staphylococcus aureus", "assay": "Antibacterial activity against community-acquired methicillin-resistant Staphylococcus aureus USA300 measured after 18 hrs", "assay_type": "functional"}}}
{"smiles": "COc1cccc(/C=C/c2cc(O)ccc2[N+](=O)[O-])c1", "values": [{"measurement": "MIC", "setting": "Staphylococcus aureus [1]", "value": 2, "unit": "mg/L"}, {"measurement": "MIC", "setting": "Staphylococcus aureus [2]", "value": 0.25, "unit": "mg/L"}, {"measurement": "MIC", "setting": "Staphylococcus aureus [3]", "value": 0.25, "unit": "mg/L"}]}
{"smiles": "CCNC(=O)Nc1ccc(OCCCCOc2ccc(NC(=O)NCC)cc2)cc1", "values": [{"measurement": "IC50", "setting": "[4]", "value": 19.8, "unit": "µM"}]}
{"smiles": "C=CCN1C(=O)/C(=C/c2cc(C)n(-c3cccc(C(=O)O)c3)c2C)SC1=S", "values": [{"measurement": "IC50", "setting": "[5]", "value": 1.8, "unit": "µM"}]}
{"smiles": "C#Cc1cccc(NCc2cc([N+](=O)[O-])cc(Br)c2O)c1", "values": [{"measurement": "MIC", "setting": "Staphylococcus aureus [2]", "value": 0.25, "unit": "mg/L"}, {"measurement": "MIC", "setting": "Staphylococcus aureus [3]", "value": 0.25, "unit": "mg/L"}]}
{"smiles": "C=C1CCO[C@]2([C@@H](O)[C@@](C)(O)CO)NC(=O)[C@@]1(O)NC2=O", "note": "[BICOZAMYCIN]", "values": [{"measurement": "Ki", "setting": "[6]", "value": 2.8, "unit": "µM"}, {"measurement": "Ki", "setting": "[7]", "value": 26, "unit": "µM"}]}
{"smiles": "O=[N+]([O-])c1ccc(O)c(/C=N/c2cccc(Cl)c2)c1", "values": [{"measurement": "MIC", "setting": "Staphylococcus aureus [1]", "value": 2, "unit": "mg/L"}, {"measurement": "MIC", "setting": "Staphylococcus aureus [2]", "value": 0.25, "unit": "mg/L"}, {"measurement": "MIC", "setting": "Staphylococcus aureus [3]", "value": 0.25, "unit": "mg/L"}]}
{"smiles": "N=C(N)N/N=C/c1ccc(OC/C=C\\COc2ccc(/C=N/NC(=N)N)cc2)cc1", "values": [{"measurement": "inhibition at 200 µM", "setting": "Bacillus subtilis [8]", "value": 100, "unit": "%"}, {"measurement": "inhibition at 200 µM", "setting": "Escherichia coli", "value": 100, "unit": "%"}]}
{"smiles": "C=CCN1C(=O)/C(=C\\c2ccc(-c3cccc(C(=O)O)c3)o2)SC1=S", "values": [{"measurement": "MIC", "setting": "Bacteroides sp.", "value": 1, "unit": "mg/L"}, {"measurement": "MIC", "setting": "Bacillus anthracis", "value": 0.1, "unit": "mg/L"}, {"measurement": "MIC", "setting": "Streptococcus pneumoniae [9]", "value": 2, "unit": "mg/L"}, {"measurement": "IC50", "setting": "[5]", "value": 2, "unit": "µM"}]}
{"smiles": "CN1C(=O)/C(=C\\c2ccc(-c3cccc(C(=O)O)c3)o2)SC1=S", "values": [{"measurement": "IC50", "setting": "[5]", "value": 3, "unit": "µM"}]}
{"smiles": "O=[N+]([O-])c1ccc(O)c(CNc2ccccc2C#Cc2ccccc2)c1", "values": [{"measurement": "MIC", "setting": "Staphylococcus aureus [1]", "value": 0.25, "unit": "mg/L"}, {"measurement": "MIC", "setting": "Staphylococcus aureus [2]", "value": 0.25, "unit": "mg/L"}, {"measurement": "MIC", "setting": "Staphylococcus aureus [3]", "value": 0.25, "unit": "mg/L"}]}
{"smiles": "C#Cc1cccc(/N=C/c2cc([N+](=O)[O-])ccc2O)c1", "values": [{"measurement": "MIC", "setting": "Staphylococcus aureus [1]", "value": 8, "unit": "mg/L"}, {"measurement": "IC50", "setting": "[4]", "value": "~35", "unit": "µM"}, {"measurement": "Kd", "setting": "[10]", "value": "~1.5", "unit": "µM"}]}
{"smiles": "CC(C)(C)c1ccccc1NCc1cc([N+](=O)[O-])ccc1O", "values": [{"measurement": "MIC", "setting": "Staphylococcus aureus [1]", "value": 1, "unit": "mg/L"}, {"measurement": "MIC", "setting": "Staphylococcus aureus [2]", "value": 0.25, "unit": "mg/L"}, {"measurement": "MIC", "setting": "Staphylococcus aureus [3]", "value": 0.25, "unit": "mg/L"}]}
{"smiles": "Nc1ccccc1Sc1ccc(C(=O)c2ccccc2C(=O)O)cc1[N+](=O)[O-]", "values": [{"measurement": "inhibition", "setting": "Bacteria", "value": 80, "unit": "%"}, {"measurement": "MIC", "setting": "Streptococcus pneumoniae [11]", "value": 256, "unit": "mg/L"}, {"measurement": "IC50", "setting": "[12]", "value": 6.4, "unit": "µM"}]}
{"smiles": "O=C1N(Cc2ccccc2)CCC1(CCN1CCC(Nc2nc3ccccc3n2Cc2ccc(F)cc2)CC1)Cc1ccccc1", "note": "(centres undefined)", "values": [{"measurement": "IC50", "setting": "[13]", "value": 25, "unit": "µM"}, {"measurement": "MIC", "setting": "Neisseria gonorrhoeae", "value": 2.5, "unit": "µM"}, {"measurement": "MIC", "setting": "Moraxella catarrhalis", "value": 2.5, "unit": "µM"}]}
{"smiles": "C[C@]12CC[C@@H](O)CC1CCC1C2CC[C@](C)(C(=O)O)C1/C=C1/Nc2ccccc2C1=O", "note": "(some centres undefined)", "values": [{"measurement": "inhibition", "setting": "Bacteria", "value": 80, "unit": "%"}, {"measurement": "MIC", "setting": "Bacillus subtilis [14]", "value": "≤ 50", "unit": "µM"}, {"measurement": "MIC", "setting": "Staphylococcus aureus [15]", "value": "~100", "unit": "µM"}]}
{"smiles": "COc1ccc(-c2cc(-c3ccc(OC)c(OC)c3)nc(NS(=O)(=O)c3ccc(NC(C)=O)cc3)n2)c(OC)c1", "values": [{"measurement": "IC50", "setting": "[4]", "value": 6.1, "unit": "µM"}]}
{"smiles": "O=C(O)c1ccccc1C(=O)c1ccc(Sc2ccc(Cl)c(Cl)c2)c([N+](=O)[O-])c1", "values": [{"measurement": "MIC", "setting": "Streptococcus pneumoniae [11]", "value": 8, "unit": "mg/L"}]}
